Reference: patent US8937084B2, “Nitrogen containing morphinan derivatives and the use thereof” (Purdue Pharma L.P., priority 2012, dated 2015)

Assays:
μ-opioid receptor = μ-opioid receptor (Homo sapiens (Human), UniProt P35372); assay: μ-opioid receptor radioligand dose-displacement binding assay ([3H]-diprenorphine)
Protocol: μ-Opioid Receptor Binding Assay Procedures: Radioligand dose-displacement binding assays for μ-opioid receptors used 0.3 nM [^3H]-diprenorphine (Perkin Elmer, Shelton, Conn.), with […] membrane protein/well in a final volume of 500 μl binding buffer (10 mM MgCl2, 1 mM EDTA, 5% DMSO, 50 mM HEPES, pH 7.4). Reactions were carried out in the absence or presence of increasing concentrations of unlabeled naloxone. All reactions were conducted in 96-deep well polypropylene plates for 2 hours at room temperature. Binding reactions were terminated by rapid filtration onto 96-well Unifilter GF/C filter plates (Perkin Elmer, Shelton, Conn.), presoaked in 0.5% polyethylenimine using a 96-well tissue harvester (Perkin Elmer, Shelton, Conn.) followed by performing three filtration washes with 500 μl of ice-cold binding buffer. Filter plates were subsequently dried at 50° C. for 2-3 hours. BetaScint scintillation cocktail (Perkin Elmer, Shelton, Conn.) was added (50 μl/well), and plates were counted using a Packard Top-Count for 1 min/well. The data were analyzed using the one-site competition curve fitting functions in GraphPad PRISM™ v. 3.0 or higher (San Diego, Calif.), or an in-house function for one-site competition curve-fitting.
(§1) In TABLE 1, binding affinity of certain Compounds of the Invention to the μ-, δ- and κ-opioid receptors was determined as described above.

κ opioid receptor = κ opioid receptor (Homo sapiens (Human), UniProt P41145); assay: κ-opioid receptor [35S]GTPγS functional assay, HEK-293 or CHO cells; assay type: biochemical; settings: for EC50: GTPγS; for Emax: relative to U69,593
Protocol: κ-Opioid Receptor Functional Assay Procedures: Functional [^35S]GTPγS binding assays were conducted as follows. κ opioid receptor membrane solution was prepared by sequentially adding final concentrations of 0.026 μg/μl κ membrane protein (in-house), 10 μg/mL saponin, 3 μM GDP and 0.20 nM [^35S]GTPγS to binding buffer (100 mM NaCl, 10 mM MgCl2, 20 mM HEPES, pH 7.4) on ice. The prepared membrane solution (190 μl/well) was transferred to 96-shallow well polypropylene plates containing 10 μl of 20× concentrated stock solutions of agonist prepared in DMSO. Plates were incubated for 30 min at a temperature of about 25° C. with shaking. Reactions were terminated by rapid filtration onto 96-well Unifilter GF/B filter plates (Perkin Elmer, Shelton, Conn.) using a 96-well tissue harvester (Packard) and followed by three filtration washes with 200 μl ice-cold binding buffer (10 mM NaH2PO4, 10 mM Na2HPO4, pH 7.4). Filter plates were subsequently dried at 50° C. for 2-3 hours. Fifty μl/well scintillation cocktail (Perkin Elmer, Shelton, Conn.) was added and plates were counted in a Packard Top-Count for 1 min/well.
κ-Oploid Receptor Functional Data: κ GTP EC50 is the concentration of a compound providing 50% of the maximal response for the compound at a K receptor.
κ GTP Emax (%) is the maximal effect elicited by a compound relative to the effect elicited by U69,593.
In TABLE 2, activity response of certain Compounds of the Invention to the μ-, δ- and κ-opioid receptors was determined as described above for functional assays using HEK-293 or CHO cells.

[1] = molecular target: recombinant human kappa opioid receptor (κ) (Homo sapiens (Human), UniProt P41145); assay: κ-opioid receptor radioligand dose-displacement binding assay ([3H]-U69,593)
Protocol: κ-Opioid Receptor Binding Assay Procedures: Membranes from HEK-293 cells, CHO or U-2 OS cells expressing the recombinant human kappa opioid receptor (κ) (cloned in house) were prepared by lysing cells in ice cold hypotonic buffer (2.5 mM MgCl2, 50 mM HEPES, pH 7.4) (10 mL/10 cm dish) followed by homogenization with a tissue grinder/Teflon pestle. Membranes were collected by centrifugation at 30,000×g for 15 min at 4° C. and pellets were resuspended in hypotonic buffer to a final concentration of 1-3 mg/mL. Protein concentrations were determined using the BioRad protein assay reagent with bovine serum albumen as standard. Aliquots of κ receptor membranes were stored at −80° C.
Radioligand dose displacement assays used 0.4 nM [^3H]-U69,593 (GE Healthcare, Piscataway, N.J.; 40 Ci/mmole) with 15 μg membrane protein (recombinant κ opioid receptor expressed in HEK 293 cells; in-house prep) in a final volume of 200 μl binding buffer (5% DMSO, 50 mM Trizma base, pH 7.4). Non-specific binding was determined in the presence of 10 μM unlabeled naloxone or U69,593. All reactions were performed in 96-well polypropylene plates for 1 hour at a temperature of about 25° C. Binding reactions were terminated by rapid filtration onto 96-well Unifilter GF/C filter plates (Perkin Elmer, Shelton, Conn.) presoaked in 0.5% polyethylenimine (Sigma). Harvesting was performed using a 96-well tissue harvester (Perkin Elmer, Shelton, Conn.) followed by five filtration washes with 200 μl ice-cold binding buffer. Filter plates were subsequently dried at 50° C. for 1-2 hours. Fifty μl/well scintillation cocktail (Perkin Elmer, Shelton, Conn.) was added and plates were counted in a Packard Top-Count for 1 min/well.
as §1

SMILES	Ki (μ-opioid receptor) [nM]	EC50 (κ opioid receptor) [nM]	Emax (κ opioid receptor) [%]	Ki [1] [nM]
O=C1C[C@]23CCN(CC4CC4)[C@H](Cc4ccc(O)cc42)[C@@H]3CN1 [Compound 7, (4aS,5R,10bS)-13-(cyclopropylmethyl)-9-hydroxy-4,4-a,5,6-tetrahydro-1H-5,10b-(epiminoethano)benzo[f]isoquinolin-2(3H)-one]	5.61 ± 0.44	5.1 ± 1.62	74.7	0.18 ± 0.02
O=C(O)CN1C[C@H]2[C@H]3Cc4ccc(O)cc4[C@@]2(CCN3CC2CC2)CC1=O [Compound 8, 2-((4aS,5R,10bS)-13-(cyclopropylmethyl)-9-hydroxy-2-oxo-4,4-a,5,6-tetrahydro-1H-5,10b-(epiminoethano)benzo[f]isoquinolin-3(2H)-yl)acetic acid]	21.2 ± 6.62	14.9 ± 2.71	66	4.03 ± 0.07
O=C1C[C@]23CCN(CC4CC4)[C@H](Cc4ccc(O)cc42)[C@@H]3CN1Cc1ccc(O)cc1 [Compound 5, (4aS,5R,10bS)-13-(cyclopropylmethyl)-9-hydroxy-3-(4-hydroxybenzyl)-4,4-a,5,6-tetrahydro-1H-5,10b-(epiminoethano)benzo[f]isoquinolin-2(3H)-one]	12.8 ± 1.55	102 ± 19.9	42	6.27 ± 1.45
NC(=O)CN1C[C@H]2[C@H]3Cc4ccc(O)cc4[C@@]2(CCN3CC2CC2)CC1=O [Compound 4, 2-((4aS,5R,10bS)— 13-(cyclopropylmethyl)-9-hydroxy-2-oxo-4,4-a,5,6-tetrahydro-1H-5,10b-(epiminoethano)benzo[f]isoquinolin-3(2H)-yl)acetamide]	24.4 ± 7.61	80.8 ± 5.95	62	0.55 ± 0.08
Oc1ccc2c(c1)[C@@]13CCNC[C@H]1[C@@H](C2)N(CC1CC1)CC3 [Compound 13, (4aS,5R,10bR)-13-(cyclopropylmethyl)-2,3,4,4a,5,6-hexahydro-1H-5,10b-(epiminoethano)benzo[f]isoquinolin-9-ol]	50.4 ± 16.7	29.5 ± 14.8	78.3	0.21 ± 0.04
